Data from paper PMC10850145, “Hormonal steroids induce multidrug resistance and stress response genes in Neisseria gonorrhoeae by binding to MtrR” (Nature Communications, 2024).
Values joined by “and” are separate entries in the source; they are usually repeats but may differ in a detail not shown here. Identical values can stand only once. Like-named read-outs stand apart in the source and are kept apart here.

Assays:
rpoH-lacZ expression = type: cell-based, Neisseria gonorrhoeae; conditions: for β-galactosidase activity (Miller units) / Miller units: rpoH-lacZ, single replicate; for Plate-6 (Testosterone) Miller units, Mean: lower four plate rows
N. gonorrhoeae = test system: N. gonorrhoeae; set-up: method as in PMID 816438; conditions: cited from earlier work
[1] = target: T1, MtrR binding to rpoH operator (27mer) (Neisseria gonorrhoeae, UniProt P39897); assay: Fluorescence polarization based DNA binding assay, rpoH operator; conditions: rpoH 27mer + 125 µM steroid
T1 construct: Hexa-histidine tag with TEV protease cleavage site (N, cleaved yes); made in house; host or cells: E. coli Rosetta Gami B(DE3) pLysS
Procedure: Fluorescence polarization based-DNA binding data were collected using a Panvera Beacon 2000 fluorescence polarization system (Invitrogen) and analyzed with Prism (Graphpad Software 9, 10). Purified MtrR was buffer exchanged into “DNA” binding buffer (150 mM NaCl, 20 mM Tris-HCl pH 7.5, 2.5% glycerol, 1 mM TCEP). […] The reported oligoduplexes containing the rpoH and mtrCDE binding site differ in lengths, 27mer and 21mer, respectively[17],[21]. […] BSA and dI-dC are included as carriers and to control for nonspecific DNA binding. Samples were excited at 490 nm and polarized emissions measured at 530 nm. Controls were run with no protein (DNA ± methanol, hormonal steroids) to ensure that millipolarization values were not affected by experimental conditions alone. The binding affinity of protein for DNA was determined using the following equation: P = Pf + (Pb – Pf) [M] / (Kd + [M]) where P is the measured polarization, Pf is the polarization of free DNA, Pb is the polarization of the completely bound DNA, Kd is the equilibrium dissociation constant, and M is the concentration of protein. Pb and Kd were determined by nonlinear least-squares analysis. At least three independent experimental measurements were averaged for each reported binding constant.

MtrR R176E = target: T2, MtrR R176E (Neisseria gonorrhoeae, UniProt P39897, R176E); assay: biochemical; type: binding
T2 construct: Hexa-histidine tag with TEV protease cleavage site (N, cleaved yes); made in house; host or cells: E. coli Rosetta Gami B(DE3) pLysS

MtrR D171A = target: T3, MtrR D171A (Neisseria gonorrhoeae, UniProt P39897, D171A); assay: biochemical; type: binding
T3 construct: Hexa-histidine tag with TEV protease cleavage site (N, cleaved yes); made in house; host or cells: E. coli Rosetta Gami B(DE3) pLysS

[2] = ΔmtrR + mtrR WT in trans, 25 µM hormone

T1 sequence (P39897 whole entry): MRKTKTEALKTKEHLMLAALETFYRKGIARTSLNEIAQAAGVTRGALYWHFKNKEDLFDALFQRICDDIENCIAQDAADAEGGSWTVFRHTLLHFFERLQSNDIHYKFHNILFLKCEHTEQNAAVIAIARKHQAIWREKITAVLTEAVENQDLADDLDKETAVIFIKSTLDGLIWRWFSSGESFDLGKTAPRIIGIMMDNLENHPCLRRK
T2 sequence (P39897 whole entry R176E): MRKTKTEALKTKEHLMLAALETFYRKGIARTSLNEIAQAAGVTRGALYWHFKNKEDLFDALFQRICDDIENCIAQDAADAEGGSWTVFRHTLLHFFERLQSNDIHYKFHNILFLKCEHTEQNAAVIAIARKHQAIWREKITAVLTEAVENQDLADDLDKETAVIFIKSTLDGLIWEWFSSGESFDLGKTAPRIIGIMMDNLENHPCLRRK
T3 sequence (P39897 whole entry D171A): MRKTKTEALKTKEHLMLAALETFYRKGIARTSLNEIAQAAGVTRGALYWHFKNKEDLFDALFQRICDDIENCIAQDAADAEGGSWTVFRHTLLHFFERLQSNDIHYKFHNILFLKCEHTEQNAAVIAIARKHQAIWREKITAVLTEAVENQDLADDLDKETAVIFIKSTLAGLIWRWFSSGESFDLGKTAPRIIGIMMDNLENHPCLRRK

SMILES: C[C@]12CC[C@H]3[C@@H](CCC4=CC(=O)CC[C@@]43C)[C@@H]1CC[C@@H]2O [Testosterone, testosterone]
- β-galactosidase activity (Miller units) (rpoH-lacZ expression; ΔmtrR + mtrR D171A in trans, 50 µM hormone): 65 Miller units and 49 Miller units and 58 Miller units
- β-galactosidase activity (Miller units) (rpoH-lacZ expression; ΔmtrR + mtrR WT in trans, 6.25 µM hormone): 39 Miller units and 46 Miller units and 47 Miller units
- β-galactosidase activity (Miller units) (rpoH-lacZ expression; ΔmtrR + mtrR WT in trans, 12.5 µM hormone): 51 Miller units and 50 Miller units and 56 Miller units and 52 Miller units
- Miller units (rpoH-lacZ expression; [2]): 55 Miller units
- β-galactosidase activity (Miller units) (rpoH-lacZ expression; [2]): 68 Miller units and 55 Miller units and 57 Miller units and 70 Miller units
- β-galactosidase activity (Miller units) (rpoH-lacZ expression; ΔmtrR + mtrR WT in trans, 50 µM hormone): 76 Miller units and 71 Miller units and 62 Miller units and 63 Miller units
- β-galactosidase activity (Miller units) (rpoH-lacZ expression; ΔmtrR strain, 6.25 µM hormone): 119 Miller units and 89 Miller units and 76 Miller units
- β-galactosidase activity (Miller units) (rpoH-lacZ expression; ΔmtrR strain, 12.5 µM hormone): 126 Miller units and 100 Miller units and 81 Miller units
- β-galactosidase activity (Miller units) (rpoH-lacZ expression; ΔmtrR strain, 25 µM hormone): 155 Miller units and 93 Miller units and 79 Miller units
- β-galactosidase activity (Miller units) (rpoH-lacZ expression; ΔmtrR strain, 50 µM hormone): 151 Miller units and 101 Miller units and 93 Miller units
- Miller units (rpoH-lacZ expression; ΔmtrR, 6.25 µM hormone): 100 Miller units
- Miller units (rpoH-lacZ expression; ΔmtrR, 12.5 µM hormone): 101 Miller units
- Miller units (rpoH-lacZ expression; ΔmtrR, 25 µM hormone): 122 Miller units
- Miller units (rpoH-lacZ expression; ΔmtrR, 50 µM hormone): 132 Miller units
- β-galactosidase activity, rpoH-lacZ, Mean (rpoH-lacZ expression; strain WT (FA19/pLES94-rpoH), hormone 6.25 µM): 69 Miller units
- β-galactosidase activity, rpoH-lacZ, Mean (rpoH-lacZ expression; strain WT (FA19/pLES94-rpoH), hormone 12.5 µM): 81 Miller units
- β-galactosidase activity, rpoH-lacZ, Mean (rpoH-lacZ expression; strain WT (FA19/pLES94-rpoH), hormone 25 µM): 98 Miller units
- β-galactosidase activity, rpoH-lacZ, Mean (rpoH-lacZ expression; strain WT (FA19/pLES94-rpoH), hormone 50 µM): 117 Miller units
- activation of rpoH (rpoH-lacZ expression; strain producing MtrR R176E): significantly less activation
- β-galactosidase activity, rpoH-lacZ, Mean (rpoH-lacZ expression; strain ΔmtrR (FA19 ∆mtrR/pLES94-rpoH), hormone 6.25 µM): 96 Miller units
- β-galactosidase activity, rpoH-lacZ, Mean (rpoH-lacZ expression; strain ΔmtrR (FA19 ∆mtrR/pLES94-rpoH), hormone 12.5 µM): 102 Miller units
- β-galactosidase activity, rpoH-lacZ, Mean (rpoH-lacZ expression; strain ΔmtrR (FA19 ∆mtrR/pLES94-rpoH), hormone 25 µM): 112 Miller units
- β-galactosidase activity, rpoH-lacZ, Mean (rpoH-lacZ expression; strain ΔmtrR (FA19 ∆mtrR/pLES94-rpoH), hormone 50 µM): 119 Miller units
- β-galactosidase activity, rpoH-lacZ, Mean (rpoH-lacZ expression; strain ΔmtrR + mtrR D171A (pGCC3-mtrR D171A), hormone 6.25 µM): 64 Miller units
- β-galactosidase activity, rpoH-lacZ, Mean (rpoH-lacZ expression; strain ΔmtrR + mtrR D171A (pGCC3-mtrR D171A), hormone 12.5 µM): 62 Miller units
- β-galactosidase activity, rpoH-lacZ, Mean (rpoH-lacZ expression; strain ΔmtrR + mtrR D171A (pGCC3-mtrR D171A), hormone 25 µM): 65 Miller units
- β-galactosidase activity, rpoH-lacZ, Mean (rpoH-lacZ expression; strain ΔmtrR + mtrR D171A (pGCC3-mtrR D171A), hormone 50 µM): 57 Miller units
- β-galactosidase activity, rpoH-lacZ, Mean (rpoH-lacZ expression; strain ΔmtrR + mtrR WT (pGCC3-mtrR), hormone 6.25 µM): 43 Miller units
- β-galactosidase activity, rpoH-lacZ, Mean (rpoH-lacZ expression; strain ΔmtrR + mtrR WT (pGCC3-mtrR), hormone 12.5 µM): 52 Miller units
- β-galactosidase activity, rpoH-lacZ, Mean (rpoH-lacZ expression; strain ΔmtrR + mtrR WT (pGCC3-mtrR), hormone 25 µM): 63 Miller units
- β-galactosidase activity, rpoH-lacZ, Mean (rpoH-lacZ expression; strain ΔmtrR + mtrR WT (pGCC3-mtrR), hormone 50 µM): 68 Miller units
- Plate-6 (Testosterone) Miller units, Mean (rpoH-lacZ expression; testosterone 6.25 µM, plate column 3): 43 Miller units
- Plate-6 (Testosterone) Miller units, Mean (rpoH-lacZ expression; testosterone 6.25 µM, plate column 9 (second strain set, columns 7-12)): 64 Miller units
- Plate-6 (Testosterone) Miller units, Mean (rpoH-lacZ expression; testosterone 12.5 µM, plate column 4): 52 Miller units
- Plate-6 (Testosterone) Miller units, Mean (rpoH-lacZ expression; testosterone 12.5 µM, plate column 10 (second strain set, columns 7-12)): 62 Miller units
- Plate-6 (Testosterone) Miller units, Mean (rpoH-lacZ expression; testosterone 25 µM, plate column 5): 63 Miller units
- Plate-6 (Testosterone) Miller units, Mean (rpoH-lacZ expression; testosterone 25 µM, plate column 11 (second strain set, columns 7-12)): 65 Miller units
- Plate-6 (Testosterone) Miller units, Mean (rpoH-lacZ expression; testosterone 50 µM, plate column 6): 68 Miller units
- Plate-6 (Testosterone) Miller units, Mean (rpoH-lacZ expression; testosterone 50 µM, plate column 12 (second strain set, columns 7-12)): 57 Miller units
- growth inhibition of N. gonorrhoeae (N. gonorrhoeae): arrest N. gonorrhoeae growth
- fluorescence polarization, MtrR titration ([1]; MtrR WT dimer 0.00 nM): 0.00 mP
- fluorescence polarization, MtrR titration ([1]; MtrR WT dimer 6.35 nM): 2.56 mP and 4.77 mP and 2.79 mP
- fluorescence polarization, MtrR titration ([1]; MtrR WT dimer 8.85 nM): 4.03 mP and 4.45 mP
- fluorescence polarization, MtrR titration ([1]; MtrR WT dimer 11.32 nM): 4.86 mP and 6.47 mP and 4.69 mP
- fluorescence polarization, MtrR titration ([1]; MtrR WT dimer 16.21 nM): 6.33 mP and 8.37 mP and 6.42 mP
- fluorescence polarization, MtrR titration ([1]; MtrR WT dimer 25.90 nM): 9.43 mP and 8.25 mP
- fluorescence polarization, MtrR titration ([1]; MtrR WT dimer 35.50 nM): 11.51 mP and 12.65 mP and 12.17 mP
- fluorescence polarization, MtrR titration ([1]; MtrR WT dimer 54.52 nM): 15.46 mP and 15.52 mP
- fluorescence polarization, MtrR titration ([1]; MtrR WT dimer 73.35 nM): 17.83 mP and 19.00 mP and 18.19 mP
- fluorescence polarization, MtrR titration ([1]; MtrR WT dimer 110.67 nM): 21.89 mP and 23.20 mP and 21.59 mP
- fluorescence polarization, MtrR titration ([1]; MtrR WT dimer 147.65 nM): 25.36 mP and 23.99 mP
- fluorescence polarization, MtrR titration ([1]; MtrR WT dimer 220.59 nM): 26.93 mP and 29.97 mP and 27.52 mP
- fluorescence polarization, MtrR titration ([1]; MtrR WT dimer 292.55 nM): 30.66 mP and 32.37 mP and 31.12 mP
- fluorescence polarization, MtrR titration ([1]; MtrR WT dimer 363.86 nM): 32.43 mP and 34.37 mP and 33.42 mP
- fluorescence polarization, MtrR titration ([1]; MtrR WT dimer 434.54 nM): 34.93 mP and 38.17 mP and 35.29 mP
- fluorescence polarization, MtrR titration ([1]; MtrR WT dimer 504.61 nM): 36.76 mP and 39.37 mP and 37.09 mP
- fluorescence polarization, MtrR titration ([1]; MtrR WT dimer 574.07 nM): 38.43 mP and 40.67 mP and 39.72 mP
- Kd (MtrR R176E): 3.73 ± 0.4 µM
- Kd (MtrR D171A): 30.9 ± 24.2 µM
